Patent US20230085307A1, “PYRIDAZINONE COMPOUND AND HERBICIDE” (NISSAN CHEMICAL CORPORATION, priority 2019, published 2023)

Legend:
late watergrass = assay: Test Example 1: herbicidal activity, application before weed generation under submerged conditions (Table 16, symbol A); format: in vivo, late watergrass (Echinochloa oryzicola); conditions: amount of applied herbicide 320 g/ha
Procedure, shortened: (§1)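 Submerged Wagner pots (alluvial soil, 4 cm water) sown with weed seeds and planted with 2.5-leaf rice seedlings; emulsifiable concentrate diluted in water applied to water surface on sowing day. Held in greenhouse at 25-30 °C; injury scored 0-5 by herbicidal rate after three weeks.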

Japanese bulrush = assay: Test Example 1: herbicidal activity, application before weed generation under submerged conditions (Table 16, symbol B); format: in vivo, Japanese bulrush (Schoenoplectus juncoides); conditions: amount of applied herbicide 320 g/ha
Procedure, shortened: as §1

oval-leafed pondweed = assay: Test Example 1: herbicidal activity, application before weed generation under submerged conditions (Table 16, symbol C); format: in vivo, oval-leafed pondweed (Monochoria vaginalis); conditions: amount of applied herbicide 320 g/ha
Procedure, shortened: as §1

barnyard grass [1] = assay: Test Example 3: herbicidal effect by foliage application, Wagner pot (Table 18, symbol H); format: in vivo, barnyard grass (Echinochloa crus-galli); conditions: for herbicidal effect on barnyard grass (H): 320 g/ha
Procedure, shortened: (§2)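 Plants were sown in alluvial soil held under 0.1–0.5 cm standing water and grown 14 days in a greenhouse at 25–30 °C. An emulsifiable formulation, water-diluted to the set dose, was then sprayed onto the foliage, and effects were scored three weeks later using previously defined criteria.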

Chinese sprangletop = assay: Test Example 3: herbicidal effect by foliage application, Wagner pot (Table 18, symbol D); format: in vivo, chinese sprangletop (Leptochloa chinensis); conditions: for herbicidal effect on Chinese sprangletop (D): 320 g/ha
Procedure, shortened: as §2

rice flat sedge = assay: Test Example 3: herbicidal effect by foliage application, Wagner pot (Table 18, symbol E); format: in vivo, rice flat sedge (Cyperus iria); conditions: for herbicidal effect on rice flat sedge (E): 320 g/ha
Procedure, shortened: as §2

southern crabgrass = assay: Test Example 5: herbicidal effect by foliage application, plastic box (Table 20, symbol F); format: in vivo, southern crabgrass (Digitaria ciliaris)
Procedure, shortened: (§3)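 Post-emergence foliar test in sterilized diluvial soil. Compound applied as water-diluted emulsion at a predetermined rate to 14-day-old plants; evaluation at three weeks.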

green foxtail = assay: Test Example 5: herbicidal effect by foliage application, plastic box (Table 20, symbol G); format: in vivo, green foxtail (Setaria viridis)
Procedure, shortened: as §3

barnyard grass [2] = assay: Test Example 5: herbicidal effect by foliage application, plastic box (Table 20, symbol H); format: in vivo, barnyard grass (Echinochloa crus-galli)
Procedure, shortened: as §3

wild oat = assay: Test Example 5: herbicidal effect by foliage application, plastic box (Table 20, symbol I); format: in vivo, wild oat (Avena fatua)
Procedure, shortened: as §3

blackgrass = assay: Test Example 5: herbicidal effect by foliage application, plastic box (Table 20, symbol J); format: in vivo, blackgrass (Alopecurus myosuroides)
Procedure, shortened: as §3

Italian ryegrass = assay: Test Example 5: herbicidal effect by foliage application, plastic box (Table 20, symbol K); format: in vivo, Italian ryegrass (Lolium multiflorum)
Procedure, shortened: as §3

windgrass = assay: Test Example 5: herbicidal effect by foliage application, plastic box (Table 20, symbol L); format: in vivo, windgrass (Apera spica-venti); conditions: foliage application, 320 g/ha, three weeks after application
Procedure, shortened: as §3

velvetleaf = assay: Test Example 5: herbicidal effect by foliage application, plastic box (Table 20, symbol M); format: in vivo, velvetleaf (Abutilon theophrasti)
Procedure, shortened: as §3

lambsquarters = assay: Test Example 5: herbicidal effect by foliage application, plastic box (Table 20, symbol O); format: in vivo, lambsquarters (Chenopodium album)
Procedure, shortened: as §3

chickweed = assay: Test Example 5: herbicidal effect by foliage application, plastic box (Table 20, symbol P); format: in vivo, common chickweed (Stellaria media)
Procedure, shortened: as §3

persian speedwell = assay: Test Example 5: herbicidal effect by foliage application, plastic box (Table 20, symbol R); format: in vivo, Persian speedwell (Veronica persica)
Procedure, shortened: as §3

redroot pigweed = assay: Test Example 5: herbicidal effect by foliage application, plastic box (Table 20, symbol N); format: in vivo, redroot pigweed (Amaranthus retroflexus); conditions: foliage application after 14-day growth, evaluated three weeks after application
Procedure, shortened: as §3

[3] = amount of applied herbicide 320 g/ha
[4] = foliage application, 320 g/ha, three weeks after application
[5] = 320 g/ha, foliage application after 14-day growth, evaluated three weeks after application
[6] = amount of applied herbicide 320 g/ha, foliage application after 14-day growth, evaluated three weeks after application

Structure (SMILES): CCc1nn(C)c(=O)c(-c2c(-c3ccccc3OC)sc3ccc(F)cc23)c1O [2-414]
- Herbicidal effect, A: late watergrass (late watergrass): 2 (Herbicidal rate of 20% or more and less than 40%)
- Herbicidal effect, B: Japanese bulrush (Japanese bulrush): 3 (Herbicidal rate of 40% or more and less than 70%)
- Herbicidal effect, C: oval-leafed pondweed (oval-leafed pondweed): 2 (Herbicidal rate of 20% or more and less than 40%)
- herbicidal effect on H: barnyard grass (barnyard grass [1]; [3]): 4 (Herbicidal rate of 70% or more and less than 90%)
- herbicidal effect on D: Chinese sprangletop (Chinese sprangletop; [3]): 3 (Herbicidal rate of 40% or more and less than 70%)
- herbicidal effect on E: rice flat sedge (rice flat sedge; [3]): 3 (Herbicidal rate of 40% or more and less than 70%)
- F: southern crabgrass, herbicidal effect grade (southern crabgrass; [4]): 1 (Herbicidal rate of 5% or more and less than 20%)
- G: green foxtail, herbicidal effect grade (green foxtail; [4]): 2 (Herbicidal rate of 20% or more and less than 40%)
- H: barnyard grass, herbicidal effect grade (barnyard grass [2]; [4]): 3 (Herbicidal rate of 40% or more and less than 70%)
- I: wild oat, herbicidal effect grade (wild oat; [4]): 0 (Herbicidal rate of 5% or less (almost no effect))
- J: blackgrass, herbicidal effect grade (blackgrass; [4]): 2 (Herbicidal rate of 20% or more and less than 40%)
- K: Italian ryegrass, herbicidal effect grade (Italian ryegrass; [4]): 1 (Herbicidal rate of 5% or more and less than 20%)
- L: windgrass, herbicidal effect grade (windgrass): 3 (Herbicidal rate of 40% or more and less than 70%)
- M: velvetleaf, herbicidal effect grade (velvetleaf; [4]): 3 (Herbicidal rate of 40% or more and less than 70%)
- O: lambsquarters, herbicidal effect grade (lambsquarters; [4]): 3 (Herbicidal rate of 40% or more and less than 70%)
- P: chickweed, herbicidal effect grade (chickweed; [4]): 5 (Herbicidal rate of 90% or more (almost completely withered))
- R: persian speedwell, herbicidal effect grade (persian speedwell; [4]): 5 (Herbicidal rate of 90% or more (almost completely withered))

Structure (SMILES): Cc1nn(C)c(=O)c(-c2c(-c3ccc(C#N)cc3)sc3c(Cl)cccc23)c1O [4-031]
- Herbicidal effect, A: late watergrass (late watergrass): 2 (Herbicidal rate of 20% or more and less than 40%)
- Herbicidal effect, B: Japanese bulrush (Japanese bulrush): 0 (Herbicidal rate of 5% or less (almost no effect))
- Herbicidal effect, C: oval-leafed pondweed (oval-leafed pondweed): 0 (Herbicidal rate of 5% or less (almost no effect))
- herbicidal effect on barnyard grass (H) (barnyard grass [1]): 3 (Herbicidal rate of 40% or more and less than 70%)
- herbicidal effect on Chinese sprangletop (D) (Chinese sprangletop): 3 (Herbicidal rate of 40% or more and less than 70%)
- herbicidal effect on rice flat sedge (E) (rice flat sedge): 5 (Herbicidal rate of 90% or more (almost completely withered))
- herbicidal effect on F: southern crabgrass (evaluation grade 0-5) (southern crabgrass; [5]): 0 (Herbicidal rate of 5% or less (almost no effect))
- herbicidal effect on G: green foxtail (evaluation grade 0-5) (green foxtail; [5]): 2 (Herbicidal rate of 20% or more and less than 40%)
- herbicidal effect on H: barnyard grass (evaluation grade 0-5) (barnyard grass [2]; [5]): 0 (Herbicidal rate of 5% or less (almost no effect))
- herbicidal effect on I: wild oat (evaluation grade 0-5) (wild oat; [5]): 0 (Herbicidal rate of 5% or less (almost no effect))
- herbicidal effect on J: blackgrass (evaluation grade 0-5) (blackgrass; [5]): 0 (Herbicidal rate of 5% or less (almost no effect))
- herbicidal effect on K: Italian ryegrass (evaluation grade 0-5) (Italian ryegrass; [5]): 3 (Herbicidal rate of 40% or more and less than 70%)
- herbicidal effect on M: velvetleaf (evaluation grade 0-5) (velvetleaf; [5]): 3 (Herbicidal rate of 40% or more and less than 70%)
- herbicidal effect on N: redroot pigweed (evaluation grade 0-5) (redroot pigweed; 320 g/ha): 5 (Herbicidal rate of 90% or more (almost completely withered))
- herbicidal effect on O: lambsquarters (evaluation grade 0-5) (lambsquarters; [5]): 4 (Herbicidal rate of 70% or more and less than 90%)
- herbicidal effect on P: chickweed (evaluation grade 0-5) (chickweed; [5]): 5 (Herbicidal rate of 90% or more (almost completely withered))
- herbicidal effect on R: persian speedwell (evaluation grade 0-5) (persian speedwell; [5]): 0 (Herbicidal rate of 5% or less (almost no effect))

Structure (SMILES): CCCC(=O)Oc1c(C)nn(C)c(=O)c1-c1c(-c2ccc(OC)c(OC)c2)sc2cc(F)c(F)cc12 [5-034]
- Herbicidal effect, A: late watergrass (late watergrass): 3 (Herbicidal rate of 40% or more and less than 70%)
- Herbicidal effect, B: Japanese bulrush (Japanese bulrush): 0 (Herbicidal rate of 5% or less (almost no effect))
- Herbicidal effect, C: oval-leafed pondweed (oval-leafed pondweed): 0 (Herbicidal rate of 5% or less (almost no effect))
- herbicidal effect on barnyard grass (H) (barnyard grass [1]): 4 (Herbicidal rate of 70% or more and less than 90%)
- herbicidal effect on Chinese sprangletop (D) (Chinese sprangletop): 1 (Herbicidal rate of 5% or more and less than 20%)
- herbicidal effect on rice flat sedge (E) (rice flat sedge): 0 (Herbicidal rate of 5% or less (almost no effect))
- Herbicidal effect by foliage application, F: southern crabgrass (southern crabgrass; [6]): 0 (Herbicidal rate of 5% or less (almost no effect))
- Herbicidal effect by foliage application, G: green foxtail (green foxtail; [6]): 3 (Herbicidal rate of 40% or more and less than 70%)
- Herbicidal effect by foliage application, H: barnyard grass (barnyard grass [2]; [6]): 0 (Herbicidal rate of 5% or less (almost no effect))
- Herbicidal effect by foliage application, I: wild oat (wild oat; [6]): 0 (Herbicidal rate of 5% or less (almost no effect))
- Herbicidal effect by foliage application, J: blackgrass (blackgrass; [6]): 0 (Herbicidal rate of 5% or less (almost no effect))
- Herbicidal effect by foliage application, K: Italian ryegrass (Italian ryegrass; [6]): 0 (Herbicidal rate of 5% or less (almost no effect))
- Herbicidal effect by foliage application, M: velvetleaf (velvetleaf; [6]): 3 (Herbicidal rate of 40% or more and less than 70%)
- Herbicidal effect by foliage application, N: redroot pigweed (redroot pigweed; [3]): 3 (Herbicidal rate of 40% or more and less than 70%)
- Herbicidal effect by foliage application, O: lambsquarters (lambsquarters; [6]): 4 (Herbicidal rate of 70% or more and less than 90%)
- Herbicidal effect by foliage application, P: chickweed (chickweed; [6]): 5 (Herbicidal rate of 90% or more (almost completely withered))
- Herbicidal effect by foliage application, R: persian speedwell (persian speedwell; [6]): 4 (Herbicidal rate of 70% or more and less than 90%)
